Experiments:
Format in all cases: in vivo, mouse
[1] = test system: rd1 mice expressing SNAP-mGluR2 in RGCs; assay: 2-chamber light/dark light aversion test, SNAP-mGluR2 in RGCs
Procedure: (§1) Mouse experiments were conducted under the express approval of the University of California Animal Care and Use Committee, wt mice (C57BL/6J) and rd1 mice (C3H) were purchased from the Jackson Laboratory and housed on a 12-h light/dark cycle with food and water ad libitum. cDNA encoding SNAP-mGluR2 was inserted in an established viral cassette under control of either the human synapsin promoter (hsyn-1) for expression in RGCs or a 4-copy concatemer of the mouse grm6 minimal promoter (4×grm6) for expression in ON-BCs and packaged in the AAV 2/2-4YF capsid. The vector, containing 10^10-10^12 viral genomes was delivered in a 2 µl volume to the vitreous of the rd1 mouse eye via microinjection. rAAV injections were at p30-p60 and in vivo and in vitro experiments at p90-p160. AAVs were produced as previously described.
Photoswitch compounds were synthesized using the protocol described in Broichhagen, J., et al. (2015) ACS Cent Sci 1, 383-393. Stock solution of […] BGAG12,460 (L-diastereomer) in 100% pharmaceutical grade DMSO (Cryoserv; Bioniche Pharma) was diluted 1:100 in sterile PBS for a final working solution of 1 mM in 1% DMSO. Working solutions were either prepared before administration, prepared in stock stored in the freezer and used as required, or salvaged from the recording bath and stored (either RT or freezer) for reuse. Application of BGAG12,460 or BGAG12 on retinal explants were performed in a volume of 200 μL at a concentration of 50 μM to 50 nM BGAG12,460 (in PBS with >1% DMSO). For in vivo behavioral experiments, a 2-μL volume of 1 mM or 3.5 μL (final vitreal concentration of […]) of BGAG12,460 solution (in PBS with 1% DMSO) was injected into eyes that treated with AAV>6 wks earlier). For in vivo concentration dependence experiments, the mouse eye was assumed to contain a volume of 5.3 μL and a 2-μL volume of 3.5 μM, 1.825 μM and 0.1825 μM BGAG12,460 solution (in PBS with 1% DMSO) was injected into eyes to obtain a final concentration of 1 μM, 500 nM and 50 nM^62. For hydrated slow release 5% pharmaceutical grade beta cyclodextrin (cyclodex) in PBS was mixed with BGAG12,460 for a final concentration of 3 μM and 2 μL were injected bilaterally into the mouse eye. MAG0460 was synthesized and administered in 2 μL at a concentration of 100 μM.
(§2) The 2-chamber light-dark passive avoidance test was performed. White light (wavelength range) at ˜100 μW cm^2 or either blue light (460/45 nm) or green light (535/50 nm) at 0.5-25 μW cm^2 was mounted above the chamber with homogeneously distributed light.
(§3) Animal movements were tracked using IR sensors on the shuttle box. Time spent in the light and dark chambers was measured and analyzed using Graphic State and Graphic State RT (Coulbourn Instruments).
Natural light aversion behavior was tested. […]

[2] = test system: rd1 mice expressing SNAP-mGluR2 in ON-BCs; assay: 2-chamber light/dark light aversion test, SNAP-mGluR2 in ON-BCs; conditions: in PBS intravitreal
Procedure: as §1, §2, §3
Whether ^4×BGAG12,460:SNAP-mGluR2 would also restore light perception in ON-BCs was tested. […]

[3] = test system: rd1 mice expressing SNAP-mGluR2 in RGCs; assay: Line pattern recognition (learned aversive association, iPad displays), SNAP-mGluR2 in RGCs; conditions: for line pattern recognition in moving displays (lines 1 or 6 cm apart): displays moving at 4 or 8 cm/s; for high-acuity line pattern recognition, 0.5 cm wide lines separated by 0.25 or 0.5 cm: in PBS intravitreal
Procedure: Modified active avoidance was assayed as previously described^19, using the Coulbourn shuttle box (H10-11M-SC), however, now iPad tablet screens were mounted onto the shuttle cage wall, each displaying one of two images that differed in orientation or distance between two lines but were otherwise of equal shape, size, and light intensity. The aversive image side was paired with a foot shock of 0.7 mA. Upon recall the light patterns were reversed to avoid a bias for location and time spent on each side was recorded. Adaptation was tested by dimming or brightening the display to different intensities.
As shown above, ^4×BGAG12,460:SNAP-mGluR2 in either RGCs or ON-BCs confers high sensitivity light perception. It was asked whether ^4×BGAG12,460:SNAP-mGluR2 would support patterned vision. The ability of treated and untreated rd1 mice to discriminate between two different line patterns in a learned negative association task was tested. The task is carried out in a 2-chamber arena, where the floor in each chamber is conductive and can apply an independent aversive mild foot shock. […] The mouse was trained for two days, during which a mild foot shock was given in one of the chambers. The line pattern associated with the foot shock was assigned randomly initially but then kept consistent for that animal throughout the 2 days of training. […] The chambers were cleaned thoroughly before and after each training or test session to remove olfactory clues. The room was kept dark to avoid room reference visual cues. And the aversive and non-aversive cues were switched between the end of the second day of training and the test day to avoid location bias.
To further assess the restored line pattern recognition, the lines were made thinner and the separation between the lines was reduced.
The kinetics of onset, decay and recovery of the restored light response are expected to affect the ability to recognize a visual pattern. […] Thus, the speed limit of ^4×BGAG12,460:SNAP-mGluR2 in RGCs is ≥8 cm/s, whereas that of medium wave cone opsin in RGCs is ≤4 cm/s.

Nc1nc(OCc2ccc(CNC(=O)CCCC(=O)N[C@H](CCC(=O)N[C@H](CCC(=O)NCCOCCOCCOCCOCCOCCOCCOCCOCCOCCOCCOCCOCCC(=O)NCCNc3ccc(/N=N/c4ccc(NC(=O)CCC[C@@H](C[C@H](N)C(=O)O)C(=O)O)cc4)cc3)C(=O)NCCOCCOCCOCCOCCOCCOCCOCCOCCOCCOCCOCCOCCC(=O)NCCNc3ccc(/N=N/c4ccc(NC(=O)CCC[C@@H](C[C@H](N)C(=O)O)C(=O)O)cc4)cc3)C(=O)N[C@H](CCC(=O)NCCOCCOCCOCCOCCOCCOCCOCCOCCOCCOCCOCCOCCC(=O)NCCNc3ccc(/N=N/c4ccc(NC(=O)CCC[C@@H](C[C@H](N)C(=O)O)C(=O)O)cc4)cc3)C(=O)NCCOCCOCCOCCOCCOCCOCCOCCOCCOCCOCCOCCOCCC(=O)NCCNc3ccc(/N=N/c4ccc(NC(=O)CCC[C@@H](C[C@H](N)C(=O)O)C(=O)O)cc4)cc3)cc2)c2nc[nH]c2n1 [^4×BGAG12,460]
dark preference three weeks after injection ([1]; in PBS intravitreal): disappeared
light aversion (time in dark versus illuminated chamber) ([1]; in PBS intravitreal, first week after injection, white screen 88 uW/cm^2): spent more time in the dark chamber than in the illuminated chamber
light aversion at 0.2 μW/cm^2 ([1]; intensity-response relation): operating at chance
light intensity giving maximal light-aversion behavior ([1]; intensity-response relation): 25 μW/cm^2
week post-injection by which dark preference disappeared [2]: ≤ 3 week
light aversion (time in dark chamber) ([2]; first week after injection): spent more time in the dark chamber
speed limit of line pattern recognition in moving displays [3]: ≥ 8 cm/s
line pattern recognition in moving displays (lines 1 or 6 cm apart) [3]: performed as well as wildtype animals when the line displays moved at either 4 or 8 cm/s
line pattern recognition in moving displays (lines 1 or 6 cm apart) ([3]; listed as 4×BGAG): supports line pattern recognition as well as wildtype vision when visual displays move at 8 cm/s
high-acuity line pattern recognition, 0.5 cm wide lines separated by 0.25 or 0.5 cm [3]: enabled the rd1 mice to perform the task and to do so as well as wildtype mice
high-acuity line pattern recognition, 0.5 cm wide lines separated by 0.25 or 0.5 cm ([3]; listed as 4×BGAG): supports line pattern recognition approaching wild-type acuity limit
line pattern recognition, parallel lines spaced 1 versus 6 cm ([3]; in PBS, trained and tested within a week after intravitreal injection): spent more time on the side of the non-aversive visual display

Reference: patent US12076329B2, “Compositions and methods for enhancing visual function” (The Regents of the University of California, priority 2020, dated 2024)
